Source: publication PMC5216056 (Nature Communications, 2017)
“And” between values parts separate entries of the source, which are not always exact repeats. Equal entries are not always repeated. Where two headings read alike, the source gives them in different places.

Experiments:
hCB1R [1] = target: T1, hCB1R (Homo sapiens, UniProt P21554); assay: biochemical; assay type: binding
T1 construct: host or cells: CHO

hCB1R [2] = target: T1, hCB1R; assay: cell-based; assay type: cell-based
hCB2R = hCB2R (Homo sapiens, UniProt P34972); design: expressed in transfected cells; host or cells: Flp-In-293 (Invitrogen #R750-07), pcDNA5/FRT; conditions: hCB2R; for ΔLogR GIRK / ΔLogR GTPγS / ΔLogR pERK / ΔLogR β-AR / ΔLogR cAMP: reference CP55940; for RE GIRK / RE GTPγS / RE pERK / RE β-AR / RE cAMP: relative effectiveness
physchem = conditions: pH 6.5, aqueous buffer, thermodynamic from solid
[3] = tested on: AEA cellular uptake in HMC-1 cells; assay: cells; assay type: cell-based, human; conditions: FAAH-deficient cells
A3 (h) = target: T2, A3 (h) (Homo sapiens, UniProt P0DMS8); assay: CEREP panel; assay type: binding; conditions: 10 µM
T2 construct: CEREP
T2 sequence (P0DMS8 1-318): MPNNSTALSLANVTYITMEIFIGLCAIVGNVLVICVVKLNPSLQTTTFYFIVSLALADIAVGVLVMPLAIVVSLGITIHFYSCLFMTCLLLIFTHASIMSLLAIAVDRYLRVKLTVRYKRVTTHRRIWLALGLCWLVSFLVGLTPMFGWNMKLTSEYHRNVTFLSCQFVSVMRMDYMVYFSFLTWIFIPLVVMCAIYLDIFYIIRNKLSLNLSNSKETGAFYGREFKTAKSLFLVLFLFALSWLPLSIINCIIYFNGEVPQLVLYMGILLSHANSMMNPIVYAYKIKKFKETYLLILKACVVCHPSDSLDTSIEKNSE

alpha 2A (h) = target: T3, alpha 2A (h) (Homo sapiens, UniProt P08913); assay: CEREP panel; assay type: binding; conditions: 10 µM
T3 construct: CEREP
T3 sequence (P08913 1-465): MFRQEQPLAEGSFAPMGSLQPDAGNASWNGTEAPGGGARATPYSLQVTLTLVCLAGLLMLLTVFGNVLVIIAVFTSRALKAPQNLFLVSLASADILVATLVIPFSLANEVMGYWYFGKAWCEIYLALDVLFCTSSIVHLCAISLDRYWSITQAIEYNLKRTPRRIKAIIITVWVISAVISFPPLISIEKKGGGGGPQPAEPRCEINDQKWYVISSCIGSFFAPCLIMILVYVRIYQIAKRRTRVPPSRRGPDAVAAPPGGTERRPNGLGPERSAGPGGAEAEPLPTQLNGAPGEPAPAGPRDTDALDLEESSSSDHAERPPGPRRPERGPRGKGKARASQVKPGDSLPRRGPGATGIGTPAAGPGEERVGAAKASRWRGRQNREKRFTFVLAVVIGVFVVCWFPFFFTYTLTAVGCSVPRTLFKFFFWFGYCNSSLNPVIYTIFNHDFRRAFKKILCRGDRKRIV

MT3 (ML2) = target: T4, MT3 (ML2) (Mesocricetus auratus, UniProt A0ABM2YAB8); assay: CEREP panel; assay type: binding; conditions: for % inhibition MT3 (ML2): 10 µM
T4 construct: CEREP (contract assay)
T4 sequence (A0ABM2YAB8 1-231): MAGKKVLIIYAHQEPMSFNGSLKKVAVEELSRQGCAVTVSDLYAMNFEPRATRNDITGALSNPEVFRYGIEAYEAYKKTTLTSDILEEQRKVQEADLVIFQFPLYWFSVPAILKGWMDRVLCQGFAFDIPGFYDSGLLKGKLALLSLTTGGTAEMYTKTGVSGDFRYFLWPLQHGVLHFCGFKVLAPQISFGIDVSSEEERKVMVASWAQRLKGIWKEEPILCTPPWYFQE

Na+ channel (site 2) = assay type: binding; conditions: 10 µM
[4] = read-out: AEA reuptake IC50 (95% CI) HMC-1 cells

T1 sequence (P21554 whole entry): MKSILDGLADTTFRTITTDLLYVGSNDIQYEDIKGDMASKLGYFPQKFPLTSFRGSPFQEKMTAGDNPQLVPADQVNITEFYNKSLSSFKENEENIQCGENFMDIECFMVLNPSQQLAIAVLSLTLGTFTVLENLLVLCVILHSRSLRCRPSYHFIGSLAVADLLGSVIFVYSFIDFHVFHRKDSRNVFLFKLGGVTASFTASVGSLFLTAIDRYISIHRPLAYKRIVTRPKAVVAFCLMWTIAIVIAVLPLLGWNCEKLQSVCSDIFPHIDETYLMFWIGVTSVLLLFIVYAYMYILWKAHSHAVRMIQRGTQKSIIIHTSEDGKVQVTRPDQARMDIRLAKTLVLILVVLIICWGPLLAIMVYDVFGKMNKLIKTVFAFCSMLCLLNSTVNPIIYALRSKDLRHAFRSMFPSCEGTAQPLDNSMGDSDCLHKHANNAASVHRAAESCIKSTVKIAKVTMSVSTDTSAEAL
hCB2R, sequence (P34972 whole entry): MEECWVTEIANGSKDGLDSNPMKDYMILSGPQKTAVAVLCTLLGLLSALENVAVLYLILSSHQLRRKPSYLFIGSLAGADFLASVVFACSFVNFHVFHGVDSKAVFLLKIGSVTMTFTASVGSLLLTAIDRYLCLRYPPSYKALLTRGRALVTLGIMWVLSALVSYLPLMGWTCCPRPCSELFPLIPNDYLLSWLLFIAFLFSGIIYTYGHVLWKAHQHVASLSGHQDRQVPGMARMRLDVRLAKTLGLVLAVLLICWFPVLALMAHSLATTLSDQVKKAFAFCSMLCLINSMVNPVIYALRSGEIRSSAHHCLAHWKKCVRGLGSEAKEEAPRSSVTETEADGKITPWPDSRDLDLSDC

Molecule: CN1CCCCC1Cn1cc(C(=O)c2cc([N+](=O)[O-])ccc2I)c2ccccc21 (racemic) [(rac)-AM1241]
- pKi ± SEM hCB1R (hCB1R [1]): 6.89 ± 0.31
- Emax ± SEM β-AR recruitment hCB1R (hCB1R [2]): 6 ± 5
- pEC50 ± SEM β-AR recruitment hCB1R (hCB1R [2]): < 5
- GIRK-GTPγS bias factor (BF) (hCB2R): 1.08
- GIRK-GTPγS ΔΔlogR (hCB2R): 0.03 ± 0.46
- LogR GIRK (hCB2R): 5.52
- LogR GTPγS (hCB2R): 5.9
- LogR pERK (hCB2R): 8.67
- LogR β-AR (hCB2R): 7.95
- pERK-GIRK bias factor (BF) (hCB2R): 95.72
- pERK-GIRK ΔΔlogR (hCB2R): 1.98 ± 0.71
- pERK-GTPγS bias factor (BF) (hCB2R): 103.28
- pERK-GTPγS ΔΔlogR (hCB2R): 2.01 ± 0.8
- β-AR-GIRK bias factor (BF) (hCB2R): 62.37
- β-AR-GIRK ΔΔlogR (hCB2R): 1.8 ± 0.49
- β-AR-GTPγS bias factor (BF) (hCB2R): 68.30
- β-AR-GTPγS ΔΔlogR (hCB2R): 1.83 ± 0.61
- β-AR-pERK bias factor (BF) (hCB2R): 0.65
- β-AR-pERK ΔΔlogR (hCB2R): -0.19 ± 0.81
- ΔLogR GIRK (hCB2R): -2.35
- ΔLogR GTPγS (hCB2R): -2.38
- ΔLogR pERK (hCB2R): -0.37
- ΔLogR β-AR (hCB2R): -0.55
- RE GIRK (hCB2R): 0.004
- RE GTPγS (hCB2R): 0.004
- RE pERK (hCB2R): 0.43
- RE β-AR (hCB2R): 0.28

Molecule: CCCCC/C=C\C/C=C\C/C=C\C/C=C\CCCC(=O)OC(CO)CO [2-AG, 2-arachidonoyl glycerol]
- solubility kinetic (physchem): < 0.5 µg/mL and < 1.3 µM
- GIRK-GTPγS bias factor (BF) (hCB2R): 154.53
- GIRK-GTPγS ΔΔlogR (hCB2R): 2.19 ± 0.44
- GIRK-cAMP bias factor (BF) (hCB2R): 178.65
- GIRK-cAMP ΔΔlogR (hCB2R): 2.25 ± 0.21
- GTPγS-cAMP bias factor (BF) (hCB2R): 1.16
- GTPγS-cAMP ΔΔlogR (hCB2R): 0.06 ± 0.46
- LogR GIRK (hCB2R): 6.40
- LogR GTPγS (hCB2R): 4.63
- LogR cAMP (hCB2R): 6.99
- LogR pERK (hCB2R): 6.37
- LogR β-AR (hCB2R): 5.9
- pERK-GIRK bias factor (BF) (hCB2R): 0.06
- pERK-GIRK ΔΔlogR (hCB2R): -1.2 ± 0.29
- pERK-GTPγS bias factor (BF) (hCB2R): 9.68
- pERK-GTPγS ΔΔlogR (hCB2R): 0.99 ± 0.5
- pERK-cAMP bias factor (BF) (hCB2R): 11.19
- pERK-cAMP ΔΔlogR (hCB2R): 1.05 ± 0.31
- β-AR-GIRK bias factor (BF) (hCB2R): 0.07
- β-AR-GIRK ΔΔlogR (hCB2R): -1.14 ± 0.19
- β-AR-GTPγS bias factor (BF) (hCB2R): 11.27
- β-AR-GTPγS ΔΔlogR (hCB2R): 1.05 ± 0.45
- β-AR-cAMP bias factor (BF) (hCB2R): 13.03
- β-AR-cAMP ΔΔlogR (hCB2R): 1.12 ± 0.23
- β-AR-pERK bias factor (BF) (hCB2R): 1.16
- β-AR-pERK ΔΔlogR (hCB2R): 0.07 ± 0.3
- ΔLogR GIRK (hCB2R): -1.47
- ΔLogR GTPγS (hCB2R): -3.65
- ΔLogR cAMP (hCB2R): -3.72
- ΔLogR pERK (hCB2R): -2.67
- ΔLogR β-AR (hCB2R): -2.6
- RE GIRK (hCB2R): 0.03
- RE GTPγS (hCB2R): 0.0002
- RE cAMP (hCB2R): 0.0002
- RE pERK (hCB2R): 0.002
- RE β-AR (hCB2R): 0.003

Molecule: CN1CCCC[C@@H]1Cn1cc(C(=O)c2cc([N+](=O)[O-])ccc2I)c2ccccc21 [(R)-AM1241]
- pKi ± SEM hCB1R (hCB1R [1]; CHO membranes, Leiden, HU210 and SR144528 from Roche): 6.86 ± 0.46
- Emax ± SEM β-AR recruitment hCB1R (hCB1R [2]): 26 ± 2
- pEC50 ± SEM β-AR recruitment hCB1R (hCB1R [2]): 5.59 ± 0.13
- IC50 [3, 4]: > 5 µM
- GIRK-GTPγS bias factor (BF) (hCB2R): 0.04
- GIRK-GTPγS ΔΔlogR (hCB2R): -1.39
- LogR GIRK (hCB2R): 5.48
- LogR GTPγS (hCB2R): 7.3
- LogR pERK (hCB2R): 8.12
- LogR β-AR (hCB2R): 7.21
- pERK-GIRK bias factor (BF) (hCB2R): 29.32
- pERK-GIRK ΔΔlogR (hCB2R): 1.47 ± 0.37
- pERK-GTPγS bias factor (BF) (hCB2R): 1.18
- pERK-GTPγS ΔΔlogR (hCB2R): 0.07 ± 0.55
- β-AR-GIRK bias factor (BF) (hCB2R): 12.13
- β-AR-GIRK ΔΔlogR (hCB2R): 1.08 ± 0.36
- β-AR-GTPγS bias factor (BF) (hCB2R): 0.49
- β-AR-GTPγS ΔΔlogR (hCB2R): -0.31 ± 0.54
- β-AR-pERK bias factor (BF) (hCB2R): 0.41
- β-AR-pERK ΔΔlogR (hCB2R): -0.38 ± 0.39
- ΔLogR GIRK (hCB2R): -2.38
- ΔLogR GTPγS (hCB2R): -0.99
- ΔLogR pERK (hCB2R): -0.91
- ΔLogR β-AR (hCB2R): -1.30
- RE GIRK (hCB2R): 0.004
- RE GTPγS (hCB2R): 0.10
- RE pERK (hCB2R): 0.12
- RE β-AR (hCB2R): 0.05

Molecule: CCCCC/C=C\C/C=C\C/C=C\C/C=C\CCCC(=O)NCCO [Anandamide, N-arachidonoylethanolamine]
- solubility kinetic (physchem): < 1.1 µg/mL and < 3.2 µM
- GIRK-GTPγS bias factor (BF) (hCB2R): 2.57
- GIRK-GTPγS ΔΔlogR (hCB2R): 0.41 ± 0.65
- GIRK-cAMP bias factor (BF) (hCB2R): 26.36
- GIRK-cAMP ΔΔlogR (hCB2R): 1.42 ± 0.34
- GTPγS-cAMP bias factor (BF) (hCB2R): 10.26
- GTPγS-cAMP ΔΔlogR (hCB2R): 1.01 ± 0.41
- LogR GIRK (hCB2R): 4.53
- LogR GTPγS (hCB2R): 4.54
- LogR cAMP (hCB2R): 5.96
- LogR pERK (hCB2R): 6.03
- LogR β-AR (hCB2R): 5.54
- pERK-GIRK bias factor (BF) (hCB2R): 2.14
- pERK-GIRK ΔΔlogR (hCB2R): 0.33 ± 0.43
- pERK-GTPγS bias factor (BF) (hCB2R): 5.50
- pERK-GTPγS ΔΔlogR (hCB2R): 0.74 ± 0.66
- pERK-cAMP bias factor (BF) (hCB2R): 56.36
- pERK-cAMP ΔΔlogR (hCB2R): 1.75 ± 0.37
- β-AR-GIRK bias factor (BF) (hCB2R): 2.37
- β-AR-GIRK ΔΔlogR (hCB2R): 0.38 ± 0.37
- β-AR-GTPγS bias factor (BF) (hCB2R): 6.10
- β-AR-GTPγS ΔΔlogR (hCB2R): 0.79 ± 0.62
- β-AR-cAMP bias factor (BF) (hCB2R): 62.52
- β-AR-cAMP ΔΔlogR (hCB2R): 1.80 ± 0.29
- β-AR-pERK bias factor (BF) (hCB2R): 1.11
- β-AR-pERK ΔΔlogR (hCB2R): 0.04 ± 0.39
- ΔLogR GIRK (hCB2R): -3.33
- ΔLogR GTPγS (hCB2R): -3.74
- ΔLogR cAMP (hCB2R): -4.76
- ΔLogR pERK (hCB2R): -3 ± 0.32
- ΔLogR β-AR (hCB2R): -2.96
- RE GIRK (hCB2R): 0.005
- RE GTPγS (hCB2R): 0.0002
- RE cAMP (hCB2R): 0.00002
- RE pERK (hCB2R): 0.001
- RE β-AR (hCB2R): 0.001

Molecule: CCCn1c(C)c(C(=O)c2cccc3ccccc23)c2ccccc21 [JWH015]
- % inhibition A3 (h) (A3 (h)): 93%
- % inhibition alpha 2A (h) (alpha 2A (h)): 1%
- % inhibition MT3 (ML2) (MT3 (ML2)): 49%
- % inhibition Na+ channel (site 2) (Na+ channel (site 2)): 50%

Molecule: Cc1c(C(=O)NN2CCCCC2)nn(-c2ccc(Cl)cc2Cl)c1-c1ccc(Cl)cc1 [SR141716A]
- IC50 ([3]; Homo sapiens, HMC1, read-out: AEA reuptake IC50 (95% CI) HMC-1 cells): 3.5 µM
- inhibition at 10 µM (MT3 (ML2); read-out: % inhibition MT3 (ML2)): 4%
- solubility kinetic (physchem): < 0.733 µg/mL and < 1.6 µM

Molecule: SR144528
- Emax ± SEM β-AR recruitment hCB1R (hCB1R [2]): -82 ± 5
- IC50 [3, 4]: > 10 µM
- % inhibition A3 (h) (A3 (h)): 72%
- % inhibition alpha 2A (h) (alpha 2A (h)): -5%
- % inhibition MT3 (ML2) (MT3 (ML2)): -21%
- % inhibition Na+ channel (site 2) (Na+ channel (site 2)): 34%
